Data on 30 compounds can be found in patent US9101628B2, “Methods and composition of treating a flaviviridae family viral infection” (The Board of Trustees of the Leland Stanford Junior …, priority 2007, dated 2015).

“Also recorded” adds a separate entry of the source. Structures can show the parent of a compound that is named as a salt. Where two headings read alike, the source gives them in different places.

One series deals with T1, HuR (Homo sapiens, UniProt Q15717).
T1 construct: The open reading frames (ORF) of HuR and HuD were obtained from the ORFeome library of cDNA clones (Open biosystems); V5-his (C); made in house; host or cells: cell-free expression on the microfluidic device, from pcDNA-Dest 40 carrying the ORFeome clone (Open Biosystems)
T1 sequence (Q15717 whole entry): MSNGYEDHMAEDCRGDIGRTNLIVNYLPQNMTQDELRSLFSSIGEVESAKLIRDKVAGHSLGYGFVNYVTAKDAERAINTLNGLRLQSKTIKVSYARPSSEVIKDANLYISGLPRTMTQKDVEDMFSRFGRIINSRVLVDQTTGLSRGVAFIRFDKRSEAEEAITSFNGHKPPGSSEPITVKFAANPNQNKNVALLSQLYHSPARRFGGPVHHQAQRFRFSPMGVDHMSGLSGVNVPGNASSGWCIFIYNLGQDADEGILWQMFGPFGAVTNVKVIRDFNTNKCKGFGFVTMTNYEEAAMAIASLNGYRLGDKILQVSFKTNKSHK
Put plainly: HuR RNA binding by microfluidics (specificity of hits). Conditions: 0.1 mM. The procedure: Specificity of hits identified in the small molecule screen: To determine the specificity of the hits identified in the small molecule screen, the HuR protein (one of the human RNA binding protein used to validate our RNA binding assay) was selected. […] Binding of HuR to the consensus 4A RNA sequence was tested in the presence of the inhibitory molecules shown to inhibit RNA binding by NS4B. […] Similarly, 0.1 mM of the identified compounds didn't have an inhibitory effect on binding of HuR to the 3′ terminus of the negative HCV RNA strand.

The subject of series [1] is full-length J6/JFH (genotype 2a) HCV RNA genome. Put plainly: microbe, parasite or virus in culture. Conditions: for EC50: Hepatitis C virus, Huh7.5, 72 h, read-out: EC50 HCV replication, genotype 2a luciferase reporter, Huh7.5 cells, 72 hr. The series is classed as cell-based. How it is done:
In such assays, luciferase activity is directly proportional to HCV RNA genome replication.
The in vivo antiviral effect on HCV RNA replication of the inhibitory compounds identified in the above screen was measured. Following electroporation with a full-length HCV RNA genome harboring a luciferase reporter gene, Huh7.5 cells were grown in the presence of increasing concentrations of these compounds. Luciferase assays were performed at 72 hr. In parallel, the viability of cells in the presence of the compounds was assessed by an Alamar Blue-based assay.
Huh-7.5 cells were maintained in Dulbecco's modified minimal essential medium (Gibco) supplemented with 1% L-glutamine (Gibco), 1% penicillin, 1% streptomycin (Gibco), 1× nonessential amino acids (Gibco) and 10% fetal bovine serum (Omega Scientific). Cell lines were passaged twice weekly after treatment with 0.05% trypsin-0.02% EDTA and seeding at a dilution of 1:5. Subconfluent Huh-7.5 cells were trypsinized and collected by centrifugation at 700 g for 5 min. The cells were then washed three times in ice-cold RNase-free PBS (BioWhittaker) and resuspended at 1.5*10^7 cells/ml in PBS. Wild type or mutant FL-J6/JFH-5′C19Rluc2AUbi RNA for electroporation was generated by in vitro transcription of XbaI-linearized DNA templates using the T7 MEGAscript kit (Ambion), followed by purification, essentially as described above (In vitro RNA transcription and fluorescent labeling). 5 μg of RNA was mixed with 400 μl of washed Huh-7.5 cells in a 2 mm-gap cuvette (BTX) and immediately pulsed (0.82 kV, five 99 μs pulses) with a BTX-830 electroporator. After a 10 min recovery at 25° C., pulsed cells were diluted into 10 ml of prewarmed growth medium. Cells from several electroporations were pooled to a common a stock and seeded in 6 well plates (5*10^5 cells per well). After 24 hr, medium was replaced and cells were grown in the presence of serial dilutions of the various inhibitory compounds (Sigma) identified in the screen. […] Untreated cells were used as a negative control for water soluble compounds. For compounds solubilized in DMSO, untreated cells were grown in the presence of corresponding concentrations of the solvent as a negative control. Medium was changed daily. After 72 hr of treatment, cells were subjected to an alamar blue based viability assay and luciferase assay.
The experiment was repeated four times, each time with triplicates.
Following electroporation with a full-length J6/JFH (genotype 2a) HCV RNA genome harboring a luciferase reporter gene, Huh7.5 cells were grown in the presence of various concentrations of the individual compounds and their combinations. Luciferase assays were performed at 72 hr.
(Reporter assays use an easily measured gene product as a stand-in for the process of interest.)

A further series deals with Huh7.5 cells. Put plainly: Alamar Blue-based cell viability assay. More on the design: species or system human. The procedure:
(§1) Total volume per well is 100 μl.
(§2) (or until there is a color change).
In general terms: Alamar Blue is a resazurin reagent that responds to reducing activity.

In the next series the test system is HCV RNA replication. The experiment in a line: RNA replication inhibition assay (luciferase reporter-linked HCV genome). Conditions: Hepatitis C virus, percentage of untreated control population; for activity at 5 µM: read-out: Residual Luciferase activity, 5 micromolar; for activity at 10 µM: read-out: Residual Luciferase activity, 10 micromolar.
Another series concerns the target hERG channel (Homo sapiens, UniProt Q12809). The experiment in a line: HERG channel assay (whole cell recordings, CHO cell line expressing hERG). (The hERG channel carries a current that helps repolarise heart muscle cells.)
For the next series, the system named is HCV. To be noted: cited from earlier work.
Series [2] concerns replicon harboring the W55R mutation. Put plainly: Whole cell RNA electroporation, clemizole resistant clone. To be noted: 10 μM clemizole; 2.5 μM SCH503034. It is filed as cell-based, HCV. How it is done:
Whole cell RNA was extracted from clemizole-resistant replicon clones and from untreated replicon cells using TRIzol reagent (Invitrogen). Equal amounts of whole cell RNA (50 μg) were electroporated into Huh7.5 cells as described above. Cells were grown under G418 selection in the presence or absence of clemizole for 3 weeks. The number of colonies was determined using Image J (NIH) following fixation and staining with Crystal violet.
Cells transfected with whole cell RNA extracted from wild type replicon cells were sensitive to both drugs.

For series [3], the system named is subgenomic Bart 79I HCV RNA replicon (genotype 1b). The experiment in a line: microbe, parasite or virus in culture. It is filed as cell-based. To be noted: Hepatitis C virus; genotype 1b luciferase reporter, 72 hr; read-out: EC50 HCV replication.
Protocol: Huh7.5 cells were electroporated with a subgenomic Bart 79I HCV RNA replicon harboring a luciferase reporter gene, and grown in the presence of increasing concentrations of the individual compounds or their combinations. As described above, luciferase assays and Alamar Blue-based viability assays were performed at 72 hr.
A short description of series [4]: Alamar Blue-based cell viability assay. More on the design: species or system human. Conditions: human, Huh7.5 cells; genotype 2a experiments; Alamar Blue-based and CellTiter-Blue assay. The procedure: as §1, §2
Series [5] deals with replicon harboring the A156T mutation. Put plainly: Whole cell RNA electroporation, SCH503034 resistant clone. The series is classed as cell-based, HCV.

hERG channel, sequence (Q12809 whole entry): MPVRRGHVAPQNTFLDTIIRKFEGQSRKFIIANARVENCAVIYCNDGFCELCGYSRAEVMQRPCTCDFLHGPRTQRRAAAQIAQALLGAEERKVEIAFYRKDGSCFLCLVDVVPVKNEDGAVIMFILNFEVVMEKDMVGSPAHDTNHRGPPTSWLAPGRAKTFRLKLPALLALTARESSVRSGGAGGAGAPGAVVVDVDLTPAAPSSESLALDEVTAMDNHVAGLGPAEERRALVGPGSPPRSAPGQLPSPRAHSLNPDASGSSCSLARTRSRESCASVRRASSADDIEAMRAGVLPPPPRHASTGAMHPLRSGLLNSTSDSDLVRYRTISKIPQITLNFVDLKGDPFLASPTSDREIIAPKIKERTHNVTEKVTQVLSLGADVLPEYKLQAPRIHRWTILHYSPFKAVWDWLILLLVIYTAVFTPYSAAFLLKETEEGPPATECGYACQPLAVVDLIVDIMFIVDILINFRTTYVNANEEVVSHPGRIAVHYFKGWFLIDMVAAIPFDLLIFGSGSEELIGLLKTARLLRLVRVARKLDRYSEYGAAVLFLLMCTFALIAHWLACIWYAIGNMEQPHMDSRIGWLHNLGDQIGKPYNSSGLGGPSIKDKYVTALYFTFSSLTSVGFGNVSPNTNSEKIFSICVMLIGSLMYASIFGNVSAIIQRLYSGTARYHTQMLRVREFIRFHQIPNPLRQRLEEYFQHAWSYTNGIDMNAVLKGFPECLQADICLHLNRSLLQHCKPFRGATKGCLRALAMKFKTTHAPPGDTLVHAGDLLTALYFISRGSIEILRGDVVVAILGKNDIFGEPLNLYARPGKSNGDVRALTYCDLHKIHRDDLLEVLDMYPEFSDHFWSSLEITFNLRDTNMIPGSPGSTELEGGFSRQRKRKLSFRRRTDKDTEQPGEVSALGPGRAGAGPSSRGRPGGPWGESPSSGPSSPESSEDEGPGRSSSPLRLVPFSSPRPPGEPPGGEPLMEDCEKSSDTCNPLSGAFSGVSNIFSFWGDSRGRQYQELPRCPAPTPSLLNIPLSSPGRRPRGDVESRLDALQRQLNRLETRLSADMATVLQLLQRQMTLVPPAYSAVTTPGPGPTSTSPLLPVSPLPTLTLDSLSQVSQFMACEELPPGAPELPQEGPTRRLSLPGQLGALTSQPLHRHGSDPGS
Protocol for hERG channel: Test articles in this study were therefore characterized to determine their ability to inhibit the hERG channel. Ion channel activity was measured using a stably transfected Chinese Hamster Ovary (CHO) cell line expressing the hERG mRNA.
AVIVA's CHO cell line, which stably expresses hERG channels, was used for the study. Cells were cultured in DMEM/F12 containing 10% FBS, 1% penicillin/streptomycin and 500 μg/ml G418. Before testing, cells were harvested using Accumax (Innovative Cell Technologies).
Whole cell recordings were-performed using PX 7000A (Axon Instruments) with VIVA's SealChip™ technology. Cells were voltage clamped at a holding potential of −80 mV. The hERG current was then activated by a depolarizing step to −50 mV for 300 ms. This first step at −50 mV was used as a baseline for measuring peak amplitude of the tail current. Next, a voltage step to +20 mV was applied for 5 s to activate the channels. Finally a step back to −50 mV for 5 seconds removed activation and the deactivating tail current was recorded.
All compounds were prepared from either 10 or 30 mM DMSO stock solutions. Solutions were mixed by sonication for 20 min, followed by vigorous vortexing. Prior to testing, compounds were diluted to test concentrations in glass vials using External Solution. Dilutions were prepared no longer than 20 min prior to use. Equal amounts of DMSO (0.1%) were present in all final dilutions.
After achieving whole cell configuration, cells were monitored for 90 s to assess stability and then washed with External Solution for 66 s. The voltage protocol described above was then applied to the cells every 12 s throughout the procedure. Only stable cells with recording parameters above threshold (see Quality Control section) were allowed to enter the drug addition procedure. External solution containing 0.1% DMSO (vehicle) was applied to the cells to establish a baseline. After allowing the current to stabilize for 3 to 5 min, test articles were applied. Test article solutions were added to cells in 4 separate additions. […]

In the case of `O=C(O)C1=CC(=C(c2ccc(O)c(C(=O)O)c2)c2ccc(O)c(C(=O)O)c2)C=CC1=O` [ATA], on HuR, the “effect on binding of HuR to 4A RNA sequence” value is given as “affected; also recorded: significantly inhibited” and the “effect on binding of HuR to the 3′ terminus of the negative HCV RNA strand” value was “significantly inhibited”.
For `Clc1ccc(Cn2c(CN3CCCC3)nc3ccccc32)cc1` [Clemizole hydrochloride, clemizole hydrochloride], in [1] (20 μM, 72 hr), the “decrease in viral replication” value is listed as “tenfold”. For the same compound, the cellular toxicity result in the series on Huh7.5 cells (at antiviral concentrations, Alamar Blue, 72 hr, hydrochloride) was “no measurable cellular toxicity”; with Huh7.5 cells (human, 72 h), “little toxicity”.
Regarding `COC(=O)c1ccc(Cn2cnc3ccccc32)cc1` [Compound 139], in the series on HCV RNA replication, the activity at 5 µM was less than 80% and the activity at 10 µM was less than 55%.
The like results for `COc1ccc(Cn2cnc3ccccc32)cc1OC` [Compound 140] were, in that order, less than 20% and less than 55%.
The like results for `CC(C)(C)c1ccc(Cn2cnc3ccccc32)cc1` [Compound 141] were, in that order, less than 55% and less than 20%.
`Cc1ccc(Cn2cnc3ccccc32)cc1` [Compound 142]: the activity at 10 µM in the series on HCV RNA replication is less than 55%.
For the compound `Oc1ccc(Cn2cnc3ccccc32)cc1` [Compound 143], in the series on HCV RNA replication, the activity at 5 µM was greater than 80% and the activity at 10 µM is less than 80%.
The like results for `COc1ccc(Cn2cnc3ccccc32)cc1` [Compound 144] were, in that order, less than 55% and less than 55%.
The like results for `Cc1cc2nc(/C=C/c3ccccc3)n(Cc3ccc(Cl)cc3)c2cc1C` [Compound 145] were, in that order, less than 80% and less than 20%.
The like results for `Cc1cc2c(ncn2Cc2ccccc2)c(N)c1C` [Compound 146] were, in that order, less than 80% and less than 80%.
`COc1ccc(Cn2c(C)nc3c(N)c(C)c(C)cc32)cc1` [Compound 147]: in the series on HCV RNA replication, the activity at 5 µM was less than 80% and the activity at 10 µM is less than 80%.
Turning to `CS(=O)(=O)c1ccc2c(c1)ncn2Cc1ccccc1` [Compound 149], in the series with HCV RNA replication, the activity at 5 µM is greater than 80% and the activity at 10 µM was greater than 80%.
With `CS(=O)(=O)c1ccc2c(c1)nc(C(F)(F)F)n2Cc1ccccc1` [Compound 150], in the series on HCV RNA replication, the activity at 5 µM was less than 80% and the activity at 10 µM is less than 55%.
The like results for `CCOC(=O)Cc1nc2cc(S(C)(=O)=O)ccc2n1Cc1ccccc1` [Compound 151] were, in that order, less than 80% and less than 55%.
Consider `CS(=O)(=O)c1ccc2c(c1)nc(S)n2Cc1ccccc1` [Compound 152], for which, in the series on HCV RNA replication, the activity at 5 µM is less than 80% and the activity at 10 µM is less than 55%.
As to `CCOC(=O)CSc1nc2cc(S(C)(=O)=O)ccc2n1Cc1ccccc1` [Compound 153], in the series with HCV RNA replication, the activity at 5 µM was greater than 80% and the activity at 10 µM was less than 80%.
For the compound `Cc1cc2ncn(Cc3cc(Cl)cc4c3OCCO4)c2cc1C` [Compound 154], in the series on HCV RNA replication, the activity at 5 µM is less than 80% and the activity at 10 µM is less than 55%.
The like results for `Cc1ccc(Cn2c(C)nc3cc(C)c(C)cc32)cc1` [Compound 155] were, in that order, less than 55% and less than 20%.
The like results for `Cc1cc2nc(CN3CCCC3)n(Cc3ccc(Cl)cc3)c2cc1C` [Compound 156] were, in that order, less than 80% and less than 55%.
The like results for `Clc1ccc(Cn2c(CN3CCCC3)nc3cc(Cl)c(Cl)cc32)cc1` [Compound 157] were, in that order, less than 80% and less than 55%.
Turning to `Cc1cc2nc(-c3ccc[nH]c3=O)n(Cc3ccc(Cl)cc3)c2cc1C` [Compound 158], in the series with HCV RNA replication, the activity at 5 µM was less than 80% and the activity at 10 µM was less than 80%.
Consider `Cc1cc2nc(-c3ccc(=O)[nH]c3)n(Cc3ccc(Cl)cc3)c2cc1C` [Compound 159], for which, in the series on HCV RNA replication, the activity at 5 µM was less than 80% and the activity at 10 µM is less than 55%.
`COC(=O)c1ccc(Cn2c(/C=C/c3ccccc3)nc3cc(C)c(C)cc32)cc1` [Compound 160]: in the series on HCV RNA replication, the activity at 5 µM is less than 80% and the activity at 10 µM was less than 20%.
`COC(=O)c1ccc(Cn2cnc3ccncc32)cc1` [Compound 161]: in the series with HCV RNA replication, the activity at 5 µM was greater than 80% and the activity at 10 µM was greater than 80%.
What is called IC50 is the point on the concentration scale where inhibition reaches its midpoint. In the case of `O=c1ccc(-c2nc3cc(Cl)c(Cl)cc3n2Cc2ccc(Cl)c(Cl)c2)c[nH]1` [Compound 167], the IC50 at hERG channel (read-out: HERG IC50, CHO cell line stably expressing hERG) was greater than 1000 nM.
Regarding `Cc1ccc2c(c1)nc(CN1CCCCC1)n2Cc1ccc(Cl)cc1` [Compound 184], the IC50 against hERG channel (human, CHO cells stably expressing hERG) is greater than 1000 nM.
A word on the EC50: it is the concentration needed to bring the measured effect to its halfway point. Consider `CNC(=O)c1c(-c2ccc(F)cc2)oc2cc(N(CCO)S(C)(=O)=O)c(C3CC3)cc12` [HCV 796, HCV-796], for which the EC50 in series [1] was 68 ± 8 nM; in the series on HCV (read-out: EC50 reported value), 17 nM.
With `CC(C)[C@H](N)C(=O)O[C@@H]1[C@@H](CO)O[C@@H](n2ccc(N)nc2=O)[C@]1(C)O` [NM283, valopicitabine], the half-maximal effective concentration (EC50) in series [1] came out at 1160 ± 200 nM.
One may read the CC50 as the concentration giving 50% cytotoxicity. A lower CC50 goes with harm at low concentration. For `CC(C)(C)NC(=O)N[C@H](C(=O)N1C[C@H]2[C@@H]([C@H]1C(=O)NC(CC1CCC1)C(=O)C(N)=O)C2(C)C)C(C)(C)C` (stereo partly drawn) [SCH503034, boceprevir], the “sensitivity of Huh7.5 cells transfected with whole cell RNA from W55R clone” value in [2] was “remained sensitive”. Also, the EC50 in [1] was 800 nM; in series [3], roughly 210 nM. In addition, the “decrease of viral replication” value in [1] (SCH503034 alone at 2.5 μM) was roughly 1 log. Further, the “viral replication relative to 1, untreated” value in series [1] (SCH503034 alone at 2.5 μM) is reported as 0.08. The compound further returned a CC50 in the series with Huh7.5 cells (genotype 1b experiments, Alamar Blue, 72 hr) greater than 100000 nM. In [4], this compound displayed a CC50 at 72 h greater than 100000 nM. Further, the “sensitivity of Huh7.5 cells transfected with whole cell RNA from A156T clone” value in series [5] was “decreased sensitivity”.
As to `CCC[C@H](NC(=O)[C@@H]1[C@H]2CCC[C@H]2CN1C(=O)[C@@H](NC(=O)[C@@H](NC(=O)c1cnccn1)C1CCCCC1)C(C)(C)C)C(=O)C(=O)NC1CC1` [VX-950, telaprevir], the EC50 is roughly 300 nM in series [1]; 354 to 560 nM in the series with HCV (different assay and 1b genotype, read-out: EC50 reported by others).
